{
  "source": "patent US11344534B2",
  "about": "“Cholinergic agonism for the treatment of pancreatic cancer” (priority 2017, dated 2022)",
  "system": "Panc1 cells",
  "experiment": "Subcutaneous implantation of 25,000 pilocarpine-pretreated Panc1 cells into NOD/SCID mice",
  "assay_type": "in vivo, mouse",
  "details": "25,000 Panc1 cells pretreated with pilocarpine for 72 hours vs untreated Panc1 cells",
  "description": "To address the possible parasympathetic effects on sternness, human pancreatic cancer cells (Panc1 and BxPC3) were treated with pilocarpine.\nTo address the possible parasympathetic effects on stemness, human pancreatic cancer cells (Panc1 and BxPC3) were treated with pilocarpine.\nLSL-Kras^+/LSL-G12D, LSL-Trp53^+/R172H, and Pdx1-Cre mice were bred by Dr. Kenneth P. Olive and co-workers. Chrm1KO mice (C57BL/6-Chrm1tm1 Stl/J, (M1RKO) mice^1 were purchased from the Jackson Laboratory. KC mice and KPC mice were crossed with M1RKO mice. In the vagotomy experiments, KC mice received pyloroplasty with or without vagotomy at 8 weeks, and some KC+VxPP mice were treated with bethanechol ([…] in drinking water) immediately after surgery and then sacrificed at 20 weeks. KPC mice in treatment studies were palpated weekly for tumors in the pancreas. Once a tumor was suspected, KPC mice were screened by VEVO 2100—Ultrasound Imaging System (FUJIFILM VisualSonics) for pancreatic cancer. KPC mice were treated with gemcitabine, given by i.p. injection 100 mg/kg biweekly, with or without bethanechol, when a tumor size of 3-5 mm was detected using ultrasound. Mice were sacrificed when the mice were moribund. NOD/SCID mice were implanted with Panc1 cells subcutaneously and sacrificed at 30 days after implantation. For liver metastatic experiments, WT type C57/B6 mice received a splenic injection of labeled Panc02 cells, followed by hemi-splenectomy. The mice were then divided into three groups. […] Mice were then sacrificed when moribund. At necropsy, hepatic metastases that could clearly be identified as tumor nodules on gross inspection were separated. All animal studies and procedures were approved by the IACUC committee at Columbia University. All mice were bred under specific pathogen free conditions. Comparisons were made with age- and sex-matched control animals.",
  "note": "Entries after “also recorded” stand apart in the source; their conditions may differ.",
  "data": [
    {"compound": "CC[C@@H]1C(=O)OC[C@@H]1Cc1cncn1C", "note": "[pilocarpine, (3S,4R)-3-ethyl-4-[(3-methylimidazol-4-yl)methyl]oxolan-2-one]", "values": [
      {"measurement": "tumor incidence / tumor initiation in NOD/SCID mice", "value": "significant reduction; also recorded: inhibited"},
      {"measurement": "tumor volume / size in NOD/SCID mice", "value": "significant reduction"},
      {"measurement": "tumor incidence / tumor initiation in NOD/SCID mice", "setting": "listed as Pilocarpine", "value": "fewer"},
      {"measurement": "tumor volume / size in NOD/SCID mice", "setting": "listed as Pilocarpine", "value": "smaller"}
    ]}
  ]
}
